Active and inactive are the calls of the source.
Key:
Melanocortin receptor 4 = Melanocortin receptor 4 (Homo sapiens, UniProt P32245); format: functional, cell-based;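 also: Cell-based assay with luminescence read-out, confirmatory dose-response testing for agonist activity of biased ligands at MC4R; human U2OS cells with tagged receptor and beta-arrestin; potency of agonists that increase receptor coupling to beta-arrestin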
[1] = biological target: T1, Oxysterols receptor LXR-beta (Homo sapiens, UniProt P55055); format: functional, cell-based;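 also: Cell-based luminescence dose-response assay of agonist activity at LXR, run as a confirmatory counterscreen to a daf-12 agonist screen; HEK293 cells with Gal4-LXR fusion and GAL4-driven luciferase reporter; agonist potency from rising luciferase signal of a Gal4-LXR reporter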
T1 sequence (P55055 whole entry): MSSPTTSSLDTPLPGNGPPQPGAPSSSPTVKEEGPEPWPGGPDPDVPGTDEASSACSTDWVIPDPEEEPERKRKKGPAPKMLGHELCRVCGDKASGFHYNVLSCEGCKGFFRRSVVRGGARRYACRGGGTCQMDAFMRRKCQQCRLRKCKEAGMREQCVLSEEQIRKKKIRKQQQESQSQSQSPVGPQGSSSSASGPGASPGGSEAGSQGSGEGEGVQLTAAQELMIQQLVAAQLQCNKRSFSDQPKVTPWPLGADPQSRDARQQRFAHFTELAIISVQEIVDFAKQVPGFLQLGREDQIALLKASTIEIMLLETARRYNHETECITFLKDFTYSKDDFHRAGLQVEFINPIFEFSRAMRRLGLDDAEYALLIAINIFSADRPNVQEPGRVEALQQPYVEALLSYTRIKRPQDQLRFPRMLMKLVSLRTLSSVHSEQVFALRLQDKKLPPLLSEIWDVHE

fMet-Leu-Phe receptor = biological target: T2, fMet-Leu-Phe receptor (Homo sapiens, UniProt P21462); assay: FPR ligands, dose response (AID 519); format: functional
T2 sequence (P21462 whole entry): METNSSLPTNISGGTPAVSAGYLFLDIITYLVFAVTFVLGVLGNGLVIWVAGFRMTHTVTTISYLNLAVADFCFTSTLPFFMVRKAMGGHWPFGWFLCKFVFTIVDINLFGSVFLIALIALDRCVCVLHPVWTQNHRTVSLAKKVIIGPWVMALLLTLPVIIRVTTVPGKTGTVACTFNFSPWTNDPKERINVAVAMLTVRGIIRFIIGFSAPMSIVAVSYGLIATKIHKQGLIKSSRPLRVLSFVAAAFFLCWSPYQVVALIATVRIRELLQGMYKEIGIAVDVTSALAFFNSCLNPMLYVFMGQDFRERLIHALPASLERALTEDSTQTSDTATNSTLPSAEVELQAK

[2] = miR-122 activators in hepatoma reporter cells, dose response, cell-based, Huh7 psiCHECK-miR122, Renilla luciferase, cherry-picked (AID 651956); format: functional;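 also: huh7 hepatoma cells stably carrying a psiCHECK-2 miR-122 sensor plasmid; renilla luciferase signal reporting endogenous miR-122 activity after 48 h compound exposure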
[3] = inhibitors of PGC1a acetylation in cells, dose response, cell-based, cherry-picked samples (AID 720514); format: functional;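 also: potency may reflect raised or lowered acetylation signal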
[4] = P. falciparum Dd2 growth inhibitors, dose response, SYBR Green, cherry-picked samples (AID 1159567); format: functional, cell-based
[5] = HepG2 cell cytotoxicity, dose response, cytotoxicity control, cherry-picked samples (AID 1159577); format: functional, cell-based
[6] = HEK293T cytotoxicity, dose response, cytotoxicity control for miR-122 modulator project, cell-based, activator set, cherry-pick (AID 720690); format: functional;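 also: HEK293T human cells scored for general mammalian cytotoxicity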
[7] = biological target: T3, Microphthalmia-associated transcription factor (Homo sapiens, UniProt O75030); assay: TRPM1 promoter luciferase signal decrease, dose response, MITF inhibitor project, cell-based, SK-MEL-5, cherry-picked, set 3 (AID 493073); format: functional
T3 sequence (O75030 whole entry): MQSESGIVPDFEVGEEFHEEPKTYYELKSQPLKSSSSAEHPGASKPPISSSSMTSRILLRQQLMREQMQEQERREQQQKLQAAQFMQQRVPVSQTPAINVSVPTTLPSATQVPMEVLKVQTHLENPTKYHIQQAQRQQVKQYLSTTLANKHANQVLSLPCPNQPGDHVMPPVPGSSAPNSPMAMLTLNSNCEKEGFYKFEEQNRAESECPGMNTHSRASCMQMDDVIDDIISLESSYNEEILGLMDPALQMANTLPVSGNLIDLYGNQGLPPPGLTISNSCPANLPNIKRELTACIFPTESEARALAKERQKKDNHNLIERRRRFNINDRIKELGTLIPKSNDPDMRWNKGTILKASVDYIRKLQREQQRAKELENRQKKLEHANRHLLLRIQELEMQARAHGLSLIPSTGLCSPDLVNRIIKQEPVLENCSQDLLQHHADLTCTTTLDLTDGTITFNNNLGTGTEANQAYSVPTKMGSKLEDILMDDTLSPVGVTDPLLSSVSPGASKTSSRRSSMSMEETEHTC

[8] = A549 cell cytotoxicity, dose response, cytotoxicity control, plate reader, cherry-pick, antagonist series (AID 743412); format: functional, cell-based
[9] = HepG2 cell cytotoxicity, dose response, cytotoxicity control, plate reader, cherry-pick, antagonist series (AID 743416); format: functional, cell-based
[10] = LGR2 antagonists, dose response, cell-based, HEK293, CRE-luciferase reporter, cherry pick, set 2 (AID 743343); format: functional;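 also: transfected cells were stimulated with diluted bursicon conditioned medium after compound addition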
[11] = MC4R antagonists, dose response, counter-screen for LGR2 antagonist project, cell-based, plate reader, cherry pick (AID 743444); format: functional;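 also: transfected HEK 293 cells stimulated with alpha-MSH peptide; potency of inhibitors of the alpha-MSH evoked signal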
[12] = HEK293 cell cytotoxicity, dose response, cytotoxicity control, plate reader, cherry-picked samples (AID 743446); format: functional, cell-based
[13] = P. falciparum 3D7-ScDHODH growth inhibitors, dose response, SYBR Green, dry powder samples (AID 1159570); format: functional, cell-based;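 also: parasite growth measured after 72 hours of compound exposure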
[14] = HepG2 cell cytotoxicity, dose response, cytotoxicity control, plate reader, dry powder samples (AID 1159569); format: functional, cell-based;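 also: inhibitor potency with signal falling toward the positive control level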
[15] = P. falciparum Dd2 growth inhibitors, dose response, SYBR Green, dry powder samples (AID 1159566); format: functional, cell-based;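 also: potency for growth inhibition with lower SYBR green DNA signal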
[16] = P. falciparum ATP4 D1247Y mutant growth inhibitors, dose response, NITD609-resistant line, SYBR Green, dry powder (AID 1159571); format: functional, cell-based;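 also: parasites synchronized at ring stage by sorbitol before testing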

Sequence of Melanocortin receptor 4 (P32245 whole entry, the tested form may be a part): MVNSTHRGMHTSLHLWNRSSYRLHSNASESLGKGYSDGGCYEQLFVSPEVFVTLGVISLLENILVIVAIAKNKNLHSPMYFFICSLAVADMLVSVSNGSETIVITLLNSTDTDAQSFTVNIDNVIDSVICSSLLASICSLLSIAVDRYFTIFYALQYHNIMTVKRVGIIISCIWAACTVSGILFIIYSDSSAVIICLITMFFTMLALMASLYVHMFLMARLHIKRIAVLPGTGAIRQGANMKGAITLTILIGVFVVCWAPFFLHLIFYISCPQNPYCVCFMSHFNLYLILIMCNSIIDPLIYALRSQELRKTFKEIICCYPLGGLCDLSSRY

SMILES: O=C(Nc1cccc(NC(=S)NC(=O)c2cccs2)c1)c1ccccc1
- EC50 (Melanocortin receptor 4): > 89.2 µM (inactive)

SMILES: CC(=O)n1nc(-c2ccccc2)cc1-c1ccccc1
- EC50 [1]: > 67.5 µM (inactive)
- EC50 (cells): > 67.5 µM (inactive)

SMILES: COc1cc(C2C(C(=O)c3ccc4c(c3)CC(C)O4)=C(O)C(=O)N2CCCn2ccnc2)ccc1O (stereo unspecified)
- Ki (fMet-Leu-Phe receptor): 57.5 µM (inactive)

SMILES: C[C@@H]1CN([C@@H](C)CO)S(=O)(=O)c2ccc(C#Cc3ccncc3)cc2O[C@@H]1CN(C)C(=O)C1CCOCC1
- AC50 [2]: 0.466 µM (active)

SMILES: CCC(=O)N(C)C[C@@H]1Oc2ncc(C#CCc3ccccc3)cc2C(=O)N([C@H](C)CO)C[C@@H]1C
- AC50 [3]: 16.4 µM (active)

SMILES: O=C(Nc1ccccc1F)N1CCCCN2[C@@H](CO)[C@H](c3ccc(C#Cc4ccccc4)cc3)[C@@H]2C1
- AC50 [4]: 0.392 µM (active)
- AC50 [5]: 10.3 µM (active)

SMILES: Cc1ccc(-c2ccc([C@H]3[C@@H]4CN(C(=O)Nc5ccc(C(F)(F)F)cc5)C[C@H]3N4)cc2)cc1
- AC50 [3]: 9.39 µM (active)
- AC50 [4]: 3.4 µM (active)
- AC50 [5]: 13.1 µM (active)

SMILES: C[C@@H]1CN([C@H](C)CO)S(=O)(=O)c2ccc(C#Cc3ccccc3F)cc2O[C@@H]1CN(C)C(=O)c1ccc2c(c1)OCO2
- AC50 [2]: 4.28 µM (active)
- AC50 [6]: 20.6 µM (active)

SMILES: Cc1cc(C)n(-c2ccc(C(=O)Nc3ccc(C)c(S(=O)(=O)N4CCOCC4)c3)cc2)n1
- AC50 [7]: 4.54 µM (active)
- AC50 [8]: > 52 µM (inactive)
- AC50 [9]: 33.8 µM (active)
- AC50 [10]: 18.1 µM (active)
- AC50 [11]: 13.4 µM (active)
- AC50 [12]: 25.4 µM (active)

SMILES: CN1C(=O)c2cc(NC(=O)c3ccc(Cl)cc3)ccc2OC[C@@H]2O[C@H](CC(=O)NCc3cccc(F)c3)CC[C@@H]21
- AC50 [6]: 26.6 µM (active)

SMILES: O=C(C1CCCC1)N1CC(=O)N2[C@H](C1)[C@@H](c1ccc(-c3cccnc3)cc1)[C@@H]2CO
- AC50 [13]: 2.97 µM (active)
- AC50 [14]: > 100 µM (inactive)
- AC50 [4]: 1.06 µM (active)
- AC50 [15]: 0.746 µM (active)
- AC50 [16]: 1.52 µM (active)

SMILES: O=C(NCc1cccnc1)C1c2ccccc2C(=O)N1C1CCCCCC1 (stereo unspecified)
- Ki (fMet-Leu-Phe receptor): 36.4 µM (inactive)
